Experimental data as given in US8865656B2, “Beta-hairpin peptidomimetics having CXCR4 antagonizing activity” (Polyphor AG, priority 2009, dated 2014).
Where two headings read alike, the source gives them in different places. Starred links: 1 amine or outer side, 2 acyl side, 3 side chain; linkers in the order of their positions; H or OH if unused. Positions of bridges follow the written chain, without caps; N, C: chain ends. Non-standard residues stand in square brackets, D forms with d. Residues, ends and D or L forms follow the SMILES beside them. ξ: configuration not given here. X1 = O=C(C(O)CCN[*:1])[*:2]; β3hS = N[C@@H](CO)CC(=O)O; Dab = NCC[C@H](N)C(=O)O; ξT = CC(O)C(N)C(=O)O

Key:
in vitro [1] = assay type: cell-based
Procedure: (§1) The cytotoxicity of the depsipeptides to HELA cells (Acc57) and COS-7 cells (CRL-1651) was determined using the MTT reduction assay (T. Mossman, J. Immunol. Meth. 1983, 65, 55-63; M. V. Berridge, A. S. Tan, Arch. Biochem. Biophys. 1993, 303, 474-482). Briefly, the method was as follows: 7000 HELA cells/well and 4500 COS-7 cells/well were seeded and grown in 96-well microtiter plates for 24 h at 37° C. at 5% CO2. Thereafter, time zero (Tz) was determined by MTT reduction (see below). The supernatant of the remaining wells was discarded, and fresh medium and compounds in serial dilutions (12.5, 25 and 50 μM, triplicates) were pipetted into the wells. After incubation of the cells for 48 h at 37° C. at 5% CO2 the supernatant was discarded again and 100 μL MTT reagent (0.5 mg/mL in RPMI1640 and DMEM, respectively)/well was added. Following incubation at 37° C. for 2 h the media were aspirated and the cells were spiked (100 μL isopropanol/well). The absorbance of the solubilized formazan was measured at 595 nm (OD595peptide). For each concentration averages were calculated from triplicates. The percentage of growth was calculated as follows: (OD595peptide-OD595Tz-OD595Empty well)/(OD595Tz-OD595Empty well)×100%. The GI50 (Growth Inhibition) concentrations were calculated for each depsipeptide by using a trend line function for the concentrations (50, 25, 12.5 and 0 μM), the corresponding percentages and the value 50, (=TREND (C50:C0, %50:%0, 50).

in vitro [2] = assay type: cell-based; remark: listed apart in the source
Procedure: as §1

[3] = system: human red blood cells (hRBC); conditions: red cells of human, 1 h
Procedure: The peptides were tested for their hemolytic activity against human red blood cells (hRBC). Fresh hRBC were washed three times with phosphate buffered saline (PBS) and centrifuged for 10 min at 2000×g. Compounds (100 μM) were incubated with 20% hRBC (v/v) for 1 h at 37° C. The final erythrocyte concentration was approximately 0.9×10^9 cells/mL. A value of 0% and 100% cell lyses, respectively, was determined by incubation of hRBC in the presence of PBS alone and 0.1% Triton X-100 in H2O, respectively. The samples were centrifuged, the supernatants were 20-fold diluted in PBS buffer and the optical densities (OD) were measured at 540 nm.
Percent hemolysis was calculated as follows: (OD540peptide/OD540H2O)×100%.

[4] = Plasma stability in human plasma
Procedure: (§2) The stability of the peptides in human and mouse plasma was determined by applying the following method: 315 μL/deep well of freshly thawed human plasma (Basler Blutspende-dienst) and mouse plasma (Harlan Sera-Lab, UK), respectively, were spiked with 35 μL/well of compound in PBS (100 μM, triplicate) and incubated at 37° C. […] Following shaking for 2 min the occurred suspensions were filtrated by vacuum and finally, 100 μL of each filtrate were transferred to a propylene microtiter plate, and analyzed by LC/MS as follows: Column: Waters, XBridge C18, mobile phases: (A) water+0.1% formic acid and (B) acetonitrile/water, 95/5 (v/v)+0.1% formic acid, gradient: 5%-100% (B) in 2 minutes, electrospray ionization, MRM detection (triple quadrupole). The peak areas were determined and triplicate values are averaged. The stability is expressed in percent of the initial value at t=0. (tx/to×100). By using the TREND function of EXCEL (Microsoft Office 2003) T1/2 were determined.

[5] = Plasma stability in mouse plasma
Procedure: as §2

human CXCR4 = target: T1, human CXCR4 (Homo sapiens, UniProt P61073); assay: Ca2+-assay: CXCR4-antagonizing activity (SDF-1 induced calcium mobilization); assay type: cell-based; conditions: mouse pre-B cell line 300-19 stably transfected with human CXCR4, read-out: IC50% [nM] ± SD, CXCR4 receptor
T1 construct: expressed in transfected cells; host or cells: mouse pre-B cell line 300-19
T1 sequence (P61073 whole entry): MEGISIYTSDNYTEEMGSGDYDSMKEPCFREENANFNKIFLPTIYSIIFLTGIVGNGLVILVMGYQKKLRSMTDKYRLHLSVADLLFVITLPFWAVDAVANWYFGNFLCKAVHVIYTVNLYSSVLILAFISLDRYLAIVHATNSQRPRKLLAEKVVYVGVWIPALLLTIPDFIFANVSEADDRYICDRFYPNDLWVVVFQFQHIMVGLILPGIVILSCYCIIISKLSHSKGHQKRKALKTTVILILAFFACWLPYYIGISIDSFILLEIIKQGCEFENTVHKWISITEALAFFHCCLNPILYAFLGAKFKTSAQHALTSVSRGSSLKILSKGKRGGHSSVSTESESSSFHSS
Text: 2.3. Ca^2+-Assay: CXCR4-Antagonizing Activity of the Peptides
Increases in intracellular calcium were monitored using a Flexstation 384 (Molecular Devices, Sunnyvale, Calif.) to assay the depsipeptides for CXCR4 antagonism in a mouse pre-B cell line 300-19 stably transfected with human CXCR4 (E. Oberlin, A. Amara, F. Bachelerie, C. Bessia, J.-L. Virelizier, F. Arenzana-Seisdedos, O. Schwartz, J.-M. Heard, I. Clark-Lewis, D. F. Legler, M. Loetscher, M. Baggiolini, B. Moser, Nature 1996, 382, 833-835; M. Loetscher, T. Geiser, T. O'Reilly, R. Zwalen, M. Baggiolini, B. Moser, J. Biol. Chem. 1994, 269, 232-237; M. D'Apuuo, A. Rolink, M. Loetscher, J. A. Hoxie, I. Clark-Lewis, F. Melchors, M. Baggiolini, B. Moser, Eur. J. Immunol. 1997, 27, 1788-1793). The cells were batch loaded with the Calcium 4 Assay kit (Molecular Devices) in assay buffer (Hanks Balanced salt solution [HBSS], 20 mM HEPES, pH 7.4, 0.1% BSA) for 1 h at room temperature and labeled cells were dispensed into black 96 well assays plates (Costar No. 3603). Calcium mobilization induced by stromal-derived factor-1 (SDF-1) was measured in the Flexstation 384 (excitation: 485 nm; emission: 525 nm) for 90 seconds. Antagonist activity of peptides was determined by spiking the cells with compounds prior to SDF-1 addition. Dose response curves (compound concentration versus % maximum response for SDF-1) were determined for each antagonist and IC50 values were calculated by fitting the data to a four parameter logistic equation using SoftmaxPro 4.8 (Molecular Devices).

[6] = human plasma, 37° C., sampling up to 240 min
[7] = mouse plasma, 37° C., sampling up to 240 min

Compound	GI50 (in vitro [1])	GI50 (in vitro [2])	Hemolysis at 100 μM [3]	Plasmastability human pl. T1/2 [4, 6]	Plasmastability mouse pl. T1/2 [5, 7]	IC50 (human CXCR4)	GI50 (in vitro [1]; human)	GI50 (in vitro [2]; African green monkey)	Plasmastability human pl. T1/2 ([4]; human, plasma)	Plasmastability mouse pl. T1/2 ([5]; mouse, plasma)	Plasmastability human pl. T1/2 ([4]; human, plasma, 10 μM)	Plasmastability mouse pl. T1/2 ([5]; mouse, plasma, 10 μM)
CC(O)C1NC(=O)[C@@H]2CSSC[C@H](NC(=O)[C@H](Cc3ccc(O)cc3)NC(=O)[C@H](CCCNC(=N)N)NC(=O)[C@H](CCN)NC(=O)[C@H]3CCCN3C(=O)[C@H](C)NC1=O)C(=O)N[C@@H](Cc1ccc(O)cc1)C(=O)N[C@@H](CCC(N)=O)C(=O)N[C@@H](CCCCN)C(=O)N1CCC[C@@H]1C(=O)N1CCC[C@H]1C(=O)N[C@@H](Cc1ccc(O)cc1)C(=O)N[C@@H](Cc1c[nH]cn1)C(=O)N[C@@H](C)C(=O)N2 (some centres unmarked) [compound 17] (cyclo(YHAC[ξT]A[dP][Dab]RYCYQK[dP]P); disulfide 4-11)	> 50 µM	> 50 µM	1%	4 h	4 h							
C[C@@H]1NC(=O)[C@H](Cc2c[nH]cn2)NC(=O)[C@H](Cc2ccc(O)cc2)NC(=O)[C@@H]2CCCN2C(=O)[C@@H](Cc2ccc(O)cc2)N(C)C(=O)[C@H](CCCCN)NC(=O)[C@H](CCC(N)=O)NC(=O)[C@H](Cc2ccc(O)cc2)NC(=O)[C@@H]2CSSC[C@H](NC1=O)C(=O)N[C@@H](CO)C(=O)N[C@@H](C)C(=O)N1CCC[C@@H]1C(=O)N[C@@H](CCN)C(=O)N[C@@H](CCCNC(=N)N)C(=O)N[C@@H](Cc1ccc(O)cc1)C(=O)N2 [compound 7]			0.6%	4 h	4 h	0.33 ± 0.1 nM	> 50 µM	> 50 µM				
C[C@@H]1NC(=O)[C@H](CO)NC(=O)[C@@H]2CSSC[C@H](NC(=O)[C@H](Cc3ccc(O)cc3)NC(=O)[C@H](CCCNC(=N)N)NC(=O)[C@H](CCN)NC(=O)[C@@H](Cc3ccc(O)cc3)NC1=O)C(=O)N[C@@H](Cc1ccc(O)cc1)C(=O)N[C@@H](CCC(N)=O)C(=O)N[C@@H](CCCCN)C(=O)N(C)[C@H](C)C(=O)N1CCC[C@H]1C(=O)N[C@@H](Cc1ccc(O)cc1)C(=O)N[C@@H](Cc1c[nH]cn1)C(=O)N[C@@H](C)C(=O)N2 [compound 12]			0.9%	4 h	4 h	0.1 ± 0.02 nM	> 50 µM	> 50 µM				
C[C@@H]1NC(=O)[C@H](Cc2c[nH]cn2)NC(=O)[C@H](Cc2ccc(O)cc2)NC(=O)[C@@H]2CCCN2C(=O)[C@H]2CCCN2C(=O)[C@H](CCCCN)NC(=O)[C@H](CCC(N)=O)NC(=O)[C@H](Cc2ccc(O)cc2)NC(=O)[C@@H]2CSSC[C@H](NC1=O)C(=O)NCCC(O)C(=O)N[C@@H](C)C(=O)N1CCC[C@@H]1C(=O)N[C@@H](CCN)C(=O)N[C@@H](CCCNC(=N)N)C(=O)N[C@@H](Cc1ccc(O)cc1)C(=O)N2 (some centres unmarked) [compound 19] (cyclo(YHAC[X1]A[dP][Dab]RYCYQK[dP]P); disulfide 4-11)	> 50 µM	> 50 µM	1.8%			1.1 ± 0.6 nM			4 h	4 h		
CC[C@@H](C)[C@H]1NC(=O)[C@H](CCCCN)NC(=O)[C@H](CCC(N)=O)NC(=O)[C@H](Cc2ccc(O)cc2)NC(=O)[C@@H]2CSSC[C@H](NC(=O)[C@H](C)NC(=O)[C@H](Cc3c[nH]cn3)NC(=O)[C@H](Cc3ccc(O)cc3)NC(=O)[C@@H]3CCCN3C1=O)C(=O)N[C@@H](CO)C(=O)N[C@@H](C)C(=O)N[C@H](Cc1c[nH]c3ccccc13)C(=O)N[C@@H](CCN)C(=O)N[C@@H](CCCNC(=N)N)C(=O)N[C@@H](Cc1ccc(O)cc1)C(=O)N2 [compound 11]			1.7%	4 h	4 h	0.17 ± 0.02 nM	> 50 µM	> 50 µM				
C[C@@H]1NC(=O)[C@H](Cc2c[nH]cn2)NC(=O)[C@H](Cc2ccc(O)cc2)NC(=O)[C@@H]2CCCN2C(=O)[C@@H](CC2CCCCC2)NC(=O)[C@H](CCCCN)NC(=O)[C@H](CCC(N)=O)NC(=O)[C@H](Cc2ccc(O)cc2)NC(=O)[C@@H]2CSSC[C@H](NC1=O)C(=O)N[C@@H](CO)C(=O)N[C@@H](C)C(=O)N1CCC[C@@H]1C(=O)N[C@@H](CCN)C(=O)N[C@@H](CCCNC(=N)N)C(=O)N[C@@H](Cc1ccc(O)cc1)C(=O)N2 [Ex. 1]			0%	4 h	4 h	1.3 ± 0.4 nM	> 50 µM	> 50 µM				
C[C@@H]1NC(=O)[C@H](Cc2c[nH]cn2)NC(=O)[C@H](Cc2ccc(O)cc2)NC(=O)[C@@H]2CCCN2C(=O)[C@H]2CCCN2C(=O)[C@H](CCCCN)NC(=O)[C@H](CCC(N)=O)NC(=O)[C@H](Cc2ccc(O)cc2)NC(=O)[C@@H]2CSSC[C@H](NC1=O)C(=O)N[C@@H](CO)CC(=O)N[C@@H](C)C(=O)N1CCC[C@@H]1C(=O)N[C@@H](CCN)C(=O)N[C@@H](CCCNC(=N)N)C(=O)N[C@@H](Cc1ccc(O)cc1)C(=O)N2 [compound 20] (cyclo(YHAC[β3hS]A[dP][Dab]RYCYQK[dP]P); disulfide 4-11)			0.6%			2.66 ± 2.2 nM	> 50 µM	> 50 µM			4 h	4 h
C[C@@H]1NC(=O)[C@H](Cc2c[nH]cn2)NC(=O)[C@H](Cc2ccc(O)cc2)NC(=O)[C@@H]2CCCN2C(=O)[C@@H](Cc2cn(Cc3ccccc3)cn2)NC(=O)[C@H](CCCCN)NC(=O)[C@H](CCC(N)=O)NC(=O)[C@H](Cc2ccc(O)cc2)NC(=O)[C@@H]2CSSC[C@H](NC1=O)C(=O)N[C@@H](CO)C(=O)N[C@@H](C)C(=O)N1CCC[C@@H]1C(=O)N[C@@H](CCN)C(=O)N[C@@H](CCCNC(=N)N)C(=O)N[C@@H](Cc1ccc(O)cc1)C(=O)N2 [compound 5]			1%	4 h	4 h	0.92 ± 0.2 nM	> 50 µM	> 50 µM				
